Data reported in ChEMBL document CHEMBL1759929, “Synthesis and pharmacological evaluation of novel benzoylazole-based PPAR α/γ activators” (Bioorg Med Chem Lett, 2011).

Experiments:
[1] = target: T1, Peroxisome proliferator-activated receptor gamma (Homo sapiens, UniProt P37231); test: Partial agonist activity at human PPARgamma expressed in CHO cells co-transfected with Gal4-responsive luciferase reporter plasmid after 24 hrs by transactivation assay; assay type: functional, cell-based
T1 sequence (P37231 whole entry): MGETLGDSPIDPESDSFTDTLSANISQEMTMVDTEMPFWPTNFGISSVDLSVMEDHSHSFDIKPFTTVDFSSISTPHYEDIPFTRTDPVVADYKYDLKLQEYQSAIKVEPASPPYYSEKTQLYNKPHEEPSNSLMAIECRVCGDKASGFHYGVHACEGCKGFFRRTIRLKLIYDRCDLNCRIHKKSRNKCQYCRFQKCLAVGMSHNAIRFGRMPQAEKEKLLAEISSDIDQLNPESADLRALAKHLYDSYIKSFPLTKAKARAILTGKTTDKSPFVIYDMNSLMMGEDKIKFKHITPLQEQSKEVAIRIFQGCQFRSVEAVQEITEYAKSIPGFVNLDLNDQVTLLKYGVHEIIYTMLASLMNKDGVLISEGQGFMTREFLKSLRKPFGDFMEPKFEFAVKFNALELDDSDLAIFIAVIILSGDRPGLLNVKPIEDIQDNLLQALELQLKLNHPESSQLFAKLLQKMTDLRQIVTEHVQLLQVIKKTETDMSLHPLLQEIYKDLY

[2] = target: T2, Peroxisome proliferator-activated receptor alpha (Homo sapiens, UniProt Q07869); test: Partial agonist activity at human PPARalpha expressed in CHO cells co-transfected with Gal4-responsive luciferase reporter plasmid after 24 hrs by transactivation assay; assay type: functional, cell-based
T2 sequence (Q07869 whole entry): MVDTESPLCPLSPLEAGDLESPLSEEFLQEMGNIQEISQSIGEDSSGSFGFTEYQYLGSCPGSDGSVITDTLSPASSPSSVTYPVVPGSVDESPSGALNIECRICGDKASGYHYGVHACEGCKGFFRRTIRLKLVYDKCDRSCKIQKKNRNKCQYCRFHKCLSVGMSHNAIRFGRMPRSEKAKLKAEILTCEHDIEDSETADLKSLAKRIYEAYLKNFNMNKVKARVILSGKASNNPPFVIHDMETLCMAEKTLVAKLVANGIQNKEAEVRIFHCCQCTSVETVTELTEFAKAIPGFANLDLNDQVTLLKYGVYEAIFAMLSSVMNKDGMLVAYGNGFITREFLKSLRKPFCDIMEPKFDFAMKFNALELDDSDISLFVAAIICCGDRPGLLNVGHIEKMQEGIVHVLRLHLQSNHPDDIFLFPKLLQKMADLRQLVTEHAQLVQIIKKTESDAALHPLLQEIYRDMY

[3] = target: T3, Peroxisome proliferator-activated receptor alpha (Homo sapiens) (UniProt Q07869); test: Partial agonist activity at human PPARalpha expressed in CHO cells co-transfected with Gal4-responsive luciferase reporter plasmid after 24 hrs by transactivation assay relative to fenofibric acid; assay type: functional, cell-based; set-up: concentration or dose not given beside the values
T3 sequence (whole entry): T2 sequence (Q07869 whole entry)

[4] = Cmax in rat at 10 mg/kg, po; assay type: ADME, organism-based; set-up: dose 10 mg/kg, route oral; details: in vivo
[5] = Oral bioavailability in rat at 10 mg/kg; assay type: ADME, organism-based; details: in vivo
[6] = Clearance in rat at 1 mg/kg, iv; assay type: ADME, organism-based; set-up: dose 1 mg/kg, route intravenous; details: in vivo
[7] = Volume of distribution in rat at 1 mg/kg, iv; assay type: ADME, organism-based; set-up: dose 1 mg/kg, route intravenous; details: in vivo
[8] = Half life in rat at 1 mg/kg, iv; assay type: ADME, organism-based; set-up: dose 1 mg/kg, route intravenous; details: in vivo
Mus musculus [9] = test: Antidiabetic effect in db/db mouse assessed as reduction in plasma glucose level at 30 mg/kg/day, po administered daily for 14 days; assay type: functional; details: 336 h
Mus musculus [10] = test: Antidiabetic effect in db/db mouse assessed as reduction in plasma triglyceride level at 30 mg/kg/day, po administered daily for 14 days; assay type: functional; details: 336 h
Mus musculus [11] = test: Antidiabetic effect in db/db mouse assessed as increase in HDL cholesterol level at 30 mg/kg/day, po administered daily for 14 days; assay type: functional; details: 336 h
Mus musculus [12] = test: Toxicity in db/db mouse assessed as body weight gain at 30 mg/kg/day, po administered daily for 14 days relative to control; assay type: organism-based; set-up: route oral; details: in vivo, 336 h
Mus musculus [13] = test: Toxicity in db/db mouse assessed as effect on food intake at 30 mg/kg/day, po administered daily for 14 days relative to control; assay type: organism-based; set-up: route oral; details: in vivo, 336 h
[14] = target: T4, Peroxisome proliferator-activated receptor alpha (Mus musculus) (UniProt P23204); test: Partial agonist activity at mouse PPARalpha expressed in CHO cells co-transfected with Gal4-responsive luciferase reporter plasmid after 24 hrs by transactivation assay relative to fenofibric acid; assay type: functional, cell-based
T4 sequence (whole entry): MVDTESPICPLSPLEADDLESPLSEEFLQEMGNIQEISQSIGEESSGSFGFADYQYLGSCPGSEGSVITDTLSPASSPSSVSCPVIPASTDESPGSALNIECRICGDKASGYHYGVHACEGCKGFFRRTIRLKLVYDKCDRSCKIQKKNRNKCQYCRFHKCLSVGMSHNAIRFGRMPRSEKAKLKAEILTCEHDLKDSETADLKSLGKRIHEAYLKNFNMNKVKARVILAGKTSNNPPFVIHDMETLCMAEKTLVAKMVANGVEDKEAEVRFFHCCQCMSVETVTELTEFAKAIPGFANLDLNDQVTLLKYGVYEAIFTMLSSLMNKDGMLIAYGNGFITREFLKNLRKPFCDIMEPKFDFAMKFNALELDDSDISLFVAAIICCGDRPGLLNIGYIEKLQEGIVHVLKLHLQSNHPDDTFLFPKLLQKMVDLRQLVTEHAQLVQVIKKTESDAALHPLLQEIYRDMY

Homo sapiens = species on record: Homo sapiens; test: Selectivity ratio of EC50 for human PPARalpha to EC50 for human PPARgamma
[15] = Selectivity ratio of EC50 for mouse PPARalpha to EC50 for human PPARgamma

Row | Structure (SMILES) | EC50 [1] | EC50 [2] | Activity [3] | also measured
1 | Cc1ccc(C(=O)c2nc3ccccc3n2/C=C/c2cccc(OC(C)(C)C(=O)O)c2)cc1 [listing 1 of 2 here] | 0.13 µM | 2.4 µM | – | –
2 | CC(C)(Oc1ccc(C(=O)c2ccc(Cl)cc2)cc1)C(=O)O | – | – | 100% | –
3 | Cc1ccc(C(=O)c2nc(C)c(C)n2C/C=C/c2cccc(OC(C)(C)C(=O)O)c2)cc1 | 4.8 µM | 3.6 µM | 60% | –
4 | Cc1ccc(C(=O)c2nccn2C/C=C/c2cccc(OCC(=O)O)c2)cc1 | > 10 µM | > 10 µM | – | –
5 | Cc1ccc(C(=O)c2nc3ccccc3n2/C=C/c2cccc(OC(C)(C)C(=O)[O-])c2)cc1.[Na+] | – | – | – | Cmax [4]: 4340 ng/mL; bioavailability [5]: 110%; clearance [6]: 3.48 mL/min/kg; Vd [7]: 0.747 L/kg; half-life [8]: 1.45 h; inhibition in vivo at 30 mg/kg/day (Mus musculus [9]): 60%; inhibition in vivo at 30 mg/kg/day (Mus musculus [10]): 86%; inhibition in vivo at 30 mg/kg/day (Mus musculus [11]): 38%; Activity (Mus musculus [12]): 11%; Activity (Mus musculus [13]): Non-toxic
6 | Cc1ccc(C(=O)c2nc3ccccc3n2C/C=C/c2cccc(OC(C)(C)C(=O)O)c2)cc1 | 1.7 µM | 3.6 µM | 42% | –
7 | Cc1ccc(C(=O)c2nccn2C/C=C/c2cccc(OC(C)(C)C(=O)O)c2)cc1 | 12 µM | 0.62 µM | 56% | –
8 | Cc1ccc(C(=O)c2nc3ccccc3n2-c2cccc(OC(C)(C)C(=O)O)c2)cc1 | 3.3 µM | – | – | –
9 | Cc1ccc(C(=O)c2nc3ccccc3n2Cc2cccc(OC(C)(C)C(=O)O)c2)cc1 | 6 µM | – | – | –
10 | Cc1ccc(C(=O)c2nc3ccccc3n2C/C=C/c2cccc(OCC(=O)O)c2)cc1 | 4.6 µM | > 10 µM | – | –
11 | Cc1ccc(C(=O)c2nc3c(n2C/C=C/c2cccc(OC(C)(C)C(=O)O)c2)CCCC3)cc1 | 3 µM | 3.6 µM | 60% | –
12 | Cc1ccc(C(=O)c2nc3ccccc3n2/C=C/c2cccc(OC(C)(C)C(=O)O)c2)cc1 [listing 2 of 2 here] | – | – | 44% | Activity [14]: 77%; Ratio EC50 (Homo sapiens): 18; Ratio EC50 [15]: 13
13 | CCc1ccc(CCOc2ccc(CC3SC(=O)NC3=O)cc2)nc1 (centres undefined) [PIOGLITAZONE] | – | – | – | inhibition in vivo at 30 mg/kg/day (Mus musculus [9]): 46%; inhibition in vivo at 30 mg/kg/day (Mus musculus [10]): 69%; inhibition in vivo at 30 mg/kg/day (Mus musculus [11]): 10%; Activity (Mus musculus [12]): 17%
